Test [1] addresses T1, human toll like receptor 7 (hTLR7) (Homo sapiens, UniProt Q9NYK1).
T1 construct: host or cells: HEK293 (HEK-Blue hTLR7)
T1 sequence (Q9NYK1 27-1049): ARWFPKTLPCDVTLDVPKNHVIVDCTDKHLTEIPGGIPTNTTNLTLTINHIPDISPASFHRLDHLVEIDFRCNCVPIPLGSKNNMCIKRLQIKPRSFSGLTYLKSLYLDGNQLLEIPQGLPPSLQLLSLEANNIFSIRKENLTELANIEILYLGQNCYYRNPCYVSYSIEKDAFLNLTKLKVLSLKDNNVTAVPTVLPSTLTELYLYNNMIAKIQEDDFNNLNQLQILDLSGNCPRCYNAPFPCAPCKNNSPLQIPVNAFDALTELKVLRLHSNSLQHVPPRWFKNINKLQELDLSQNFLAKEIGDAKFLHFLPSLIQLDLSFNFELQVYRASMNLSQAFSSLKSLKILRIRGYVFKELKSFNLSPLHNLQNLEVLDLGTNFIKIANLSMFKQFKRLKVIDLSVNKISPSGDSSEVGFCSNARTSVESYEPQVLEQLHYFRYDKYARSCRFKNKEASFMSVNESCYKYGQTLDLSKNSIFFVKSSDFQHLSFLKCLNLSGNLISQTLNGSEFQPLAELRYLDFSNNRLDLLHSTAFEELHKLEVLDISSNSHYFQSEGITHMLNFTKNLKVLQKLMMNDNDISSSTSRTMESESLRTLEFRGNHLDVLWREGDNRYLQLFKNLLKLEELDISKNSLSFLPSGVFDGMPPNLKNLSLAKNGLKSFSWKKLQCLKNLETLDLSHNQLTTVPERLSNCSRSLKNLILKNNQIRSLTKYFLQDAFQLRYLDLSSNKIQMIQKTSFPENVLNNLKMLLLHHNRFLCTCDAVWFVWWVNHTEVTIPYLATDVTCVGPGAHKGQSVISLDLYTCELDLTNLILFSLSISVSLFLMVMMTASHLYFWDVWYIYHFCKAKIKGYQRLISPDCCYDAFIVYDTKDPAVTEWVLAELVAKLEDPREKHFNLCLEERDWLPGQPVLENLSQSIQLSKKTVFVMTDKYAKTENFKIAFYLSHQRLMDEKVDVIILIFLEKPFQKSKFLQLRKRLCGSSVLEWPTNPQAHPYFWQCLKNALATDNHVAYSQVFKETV
Description: hTLR7 cell functional assay (HEK-Blue hTLR7 SEAP reporter). Format: cell-based. Particulars: HEK293 cells stably overexpressing hTLR7, SEAP reporter; geometric mean when tested more than once. The method, then:
(§1) The Examples described were tested for biological activity in functional cellular assays using HEK293 cells stably overexpressing human TLR7 or TLR8. The assays tested for the ability of each Example to stimulate secretion of interferon alpha (IFNα) in human primary blood mono nuclear cells (PBMC).
(§2) To determine the ability of each Example to activate the human toll like receptor 7 (hTLR7) or human toll like receptor 8 (hTLR8), cell-based reporter systems were utilized. HEK293 cells stably overexpressing either hTLR7 or hTLR8 along with a reporter gene containing an optimized secreted embryonic alkaline phosphatase gene (SEAP), under the control of the IFN-b minimal promoter fused to five NF-κB and AP-1-binding sites, were obtained from Invivogen (HEK-Blue™ hTLR7, cat #Hkb-ht1r7; HEK-Blue™ hTLR8, cat #Hkb-ht1r8). Stimulation of hTLR7 or hTLR8 in these cells activates NF-κB and AP-1 and induces the production of SEAP which can be quantified using an alkaline phosphatase detection reagent.
(§3) Cells were maintained in Dulbecco's Modified Eagle Media (DMEM) (containing Fetal Bovine Serum (FBS) heat inactivated (10%), Glutamax (2 mM), Penicillin/Streptomycin, Blasticidin (10 μg/ml), Zeocin (100 μg/ml) and Normocin (100 μg/ml)). On day one of the assay, Examples were prepared using 11-point half-log serial dilutions from a 10mM DMSO stock solution and 50 nl was spotted into 384-well Viewplates (PerkinElmer, cat #6007480). Positive control TLR7/8 agonist and negative control (DMSO, no Example) were also spotted within the assay plate and were used to determine percent effect during the analysis process. After resuspension in DMEM assay media containing FBS heat inactivated (10%), Glutamax (2 mM) and Penicillin/Streptomycin, 10,000 cells/20 μl/well were added to previously prepared plates. Plates were incubated overnight (16-20 hrs) at 37° C. in a 5% CO2 environment. Prewetted Microclime lids (Labcyte, LLS-0310) were used to prevent evaporation. On day two of the assay, QUANTI-Blue™ detection reagent was prepared by reconstituting QUANTI-Blue™ powder (InvivoGen, Rep-qb1) with 100 ml of sterile water and allowed to equilibrate to 37° C. for 15 minutes. 20 μl of QUANTI-Blue™ detection reagent was added to each well and plates were incubated at room temperature for 180 min. At the end of the incubation, plates were read on an Envision (Perkin Elmer) plate reader capturing absorbance at 650 nm.
(§4) Using Positive (TLR7/8 agonist) and Negative (DMSO) controls, the percent (%) effect was calculated for each Example using the following equation: effect=100−[100*{(Example−Positive Control)/(Negative Control−Positive Control)}]
(§5) The % effect at each concentration of each Example was calculated utilizing the ABase software suite (IBDS) and was relative to the amount of SEAP produced in the positive and negative control wells contained within each assay plate. The concentrations and % effect values for each Example were fit using a 4-parameter logistic model in ABase and the concentration of each Example that produced 50% response (EC50) was calculated.

The target in test [2] is T2, human toll like receptor 8 (hTLR8) (Homo sapiens, UniProt Q9NR97).
T2 construct: host or cells: HEK293 (HEK-Blue hTLR8)
T2 sequence (Q9NR97 27-1041): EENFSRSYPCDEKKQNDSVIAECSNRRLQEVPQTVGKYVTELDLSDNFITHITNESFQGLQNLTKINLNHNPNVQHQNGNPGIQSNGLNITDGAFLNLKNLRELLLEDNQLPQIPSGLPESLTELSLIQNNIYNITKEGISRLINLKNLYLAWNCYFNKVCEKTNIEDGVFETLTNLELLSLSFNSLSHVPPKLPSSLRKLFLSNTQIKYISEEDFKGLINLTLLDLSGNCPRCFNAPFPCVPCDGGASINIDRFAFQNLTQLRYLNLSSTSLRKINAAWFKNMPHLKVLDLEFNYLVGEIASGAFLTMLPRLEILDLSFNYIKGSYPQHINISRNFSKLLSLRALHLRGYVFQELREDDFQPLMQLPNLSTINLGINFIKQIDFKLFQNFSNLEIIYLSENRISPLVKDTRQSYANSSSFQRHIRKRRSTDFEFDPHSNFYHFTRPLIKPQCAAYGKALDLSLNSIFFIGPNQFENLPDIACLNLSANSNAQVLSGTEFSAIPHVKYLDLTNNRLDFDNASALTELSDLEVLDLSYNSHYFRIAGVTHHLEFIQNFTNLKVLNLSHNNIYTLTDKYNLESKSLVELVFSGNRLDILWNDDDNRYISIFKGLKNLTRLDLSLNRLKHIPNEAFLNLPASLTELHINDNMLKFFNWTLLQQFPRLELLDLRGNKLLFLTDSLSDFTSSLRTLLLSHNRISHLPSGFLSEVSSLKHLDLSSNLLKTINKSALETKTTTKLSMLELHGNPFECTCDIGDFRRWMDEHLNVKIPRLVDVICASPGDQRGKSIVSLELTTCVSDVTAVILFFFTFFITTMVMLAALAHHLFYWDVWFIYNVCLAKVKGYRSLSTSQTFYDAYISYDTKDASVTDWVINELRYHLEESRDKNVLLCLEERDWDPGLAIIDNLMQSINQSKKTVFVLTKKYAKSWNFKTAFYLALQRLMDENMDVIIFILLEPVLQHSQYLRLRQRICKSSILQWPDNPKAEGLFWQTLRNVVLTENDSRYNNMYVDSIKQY
Put plainly: hTLR8 cell functional assay (HEK-Blue hTLR8 SEAP reporter). It counts as cell-based. To be noted: HEK293 cells stably overexpressing hTLR8, SEAP reporter; geometric mean when tested more than once. How it is done: as §1, §2, §3, §4, §5

Test [3] concerns superficial basal cell carcinomas. To be noted: marketed 5% cream (Aldara); cited from earlier work.

pEC50: −log10 of the molar value.

As usually defined, the pEC50 is the EC50 on a negative log10 scale, so that one unit is a factor of ten. Read a low pEC50 as a high EC50. In the case of `CCOCc1nc2c(N)nc3c(c2n1CC(C)(CO)CO)CCC3` [Example 4, 2-((4-amino-2-(ethoxymethyl)-7,8-dihydrocyclopenta[b]imidazo[4,5-d]pyridin-1(6H)-yl)methyl)-2-methylpropane-1,3-diol], the pEC50 in test [1] was 7.27; in test [2], 6.40.

Take `CCOCc1nc2c(N)nc3c(c2n1CC(C)(CO)CO)CCCC3` [Example 5, 2-((4-amino-2-(ethoxymethyl)-6,7,8,9-tetrahydro-1H-imidazo[4,5-c]quinolin-1-yl)methyl)-2-methylpropane-1,3-diol]: the pEC50 in test [1] was 7.38; in test [2], 6.56.

Regarding `CCCCc1nc2c(N)nc(C)c(C)c2n1CC(C)(CO)CO` [Example 11, 2-((4-amino-2-butyl-6,7-dimethyl-1H-imidazo[4,5-c]pyridin-1-yl)methyl)-2-methylpropane-1,3-diol], the pEC50 in test [1] was 7.89; in test [2], 6.80.

With `CCCCCc1nc2c(N)nc3ccccc3c2n1CC(C)(CO)CO` [Example 12, 2-((4-amino-2-pentyl-1H-imidazo[4,5-c]quinolin-1-yl)methyl)-2-methylpropane-1,3-diol], the pEC50 in test [1] was 8.05; in test [2] it was 6.72.

As to `COCCc1nc2c(N)nc3c(c2n1CC(C)(CO)CO)CCC3` [Example 17, 2-((4-amino-2-(2-methoxyethyl)-7,8-dihydrocyclopenta[b]imidazo[4,5-d]pyridin-1(6H)-yl)methyl)-2-methylpropane-1,3-diol], the figures for the pEC50 in test [1] and in test [2] were 6.81 and 5.97, respectively.

With `COCCc1nc2c(N)nc3c(c2n1CC(C)(CO)CO)CCCC3` [Example 18, 2-((4-amino-2-(2-methoxyethyl)-6,7,8,9-tetrahydro-1H-imidazo[4,5-c]quinolin-1-yl)methyl)-2-methylpropane-1,3-diol], the figures for the negative logarithm of the EC50 (pEC50) in test [1] and in test [2] were 7.80 and 6.92, respectively.

With `COCCc1nc2c(N)nc3ccccc3c2n1CC(C)(CO)CO` [Example 19, 2-((4-amino-2-(2-methoxyethyl)-1H-imidazo[4,5-c]quinolin-1-yl)methyl)-2-methylpropane-1,3-diol], the pEC50 in test [1] was 8.05; in test [2], 6.51.

For `CC(C)Cn1cnc2c(N)nc3ccccc3c21` [Imiquimod], in test [3], the “5-year clearance of superficial basal cell carcinomas” value is “approximately 80%”.

Source of the values: patent US11976064B2, “Toll-like receptor agonists” (Pfizer Inc., priority 2019, dated 2024).
